Measurements published in publication PMC8850458, “The AUTOTAC chemical biology platform for targeted protein degradation via the autophagy-lysosome system” (Nature Communications, 2022).
Several values for one entry are separate records, joined by “and”; a condition that tells them apart may be missing. Identical values can stand only once. Like-named read-outs stand apart in the source and are kept apart here.

Experiments:
[1] = target: T1, tau oligomers (htauP301L-BiFC bodies) and phosphorylated tau-BiFC (Homo sapiens, UniProt P10636, P618L); test: Immunohistochemistry of BiFC and AT8 fluorescence in brains of hTauP301L-BiFC mice; format: in vivo; conditions: Fig. 6k; for Sudan black B (BiFC fluorescence) CA1, per animal: control AVG 32.0843; for Sudan black B (BiFC fluorescence) Cortex, per animal: control AVG 98.7415
T1 construct: from tissue; host or cells: brain of 9-month-old hTauP301L-BiFC transgenic mice (C57BL/6)
Method: To evaluate the effect of PBA-1105 on tau aggregation in vivo, PBA-1105 was intraperitoneally administered to 9-month-old TauP301L-mice (n = 7 per group) with 20 or 50 mg/kg dosage. PBS containing 30% polyethylene glycol (PEG) was used as a vehicle. Twelve total administrations were performed for 4 weeks, three times a week.
Mice were anesthetized by intraperitoneal injection of 2% avertin (2,2,2-Tribromoethanol). Mice were then perfused with 0.9% saline. Brains were rapidly extracted and fixed with PBS containing 4% paraformaldehyde for 48 hr. For, cryprotection, the brains were infiltrated with PBS containing 30% sucrose at 4 °C until they sunk. For cryosectioning, the brains were embedded with O.C.T (Leica, Germany) and serially cut in the coronal plane into 30-μm thick sections on a cryostat microtome (Leica). Tissue slices were transferred to PBS containing 0.05% sodium azide as a preservative and stored at 4 °C.
To reduce autofluorescence of brain tissues, Sudan Black B stain was performed. Brain tissue slices were mounted onto glass slides and were stained with Sudan Black B solution (70 % ethanol containing 0.05% Sudan Black B) for 10 min. Then, to eliminate the excessive stain, the slides were dipped in PBS containing 0.1% Triton X-100 three times and washed with distilled water after. For nuclei counter-stain, brain tissues were stained with 0.5 μg/mL Hoechst in distilled water for 30 min. BiFC fluorescence (λex = 460−490 nm and λem = 500−550 nm) of brain slices were imaged using ZEISS® Axio Scan.Z1 (Zeiss, Germany). Fluorescence and total area of each puncta were measured using ImageJ (NIH, Bethesda).

[2] = system: endogenous wild-type murine tau; conditions: for AVG (%) Insoluble mTau / AVG (%) Soluble mTau: control 100
[3] = target: high-molecular weight tau aggregates (Homo sapiens, UniProt P10636, P618L); test: In vivo oligomerization (aggregation) assay in SH-SY5Y-tauP301L cells; format: cell-based; conditions: okadaic acid 15 nM, compound 0.1 μM, 24 h
Method: HEK293T cells were transfected with P301L-tau-EGFP plasmid using Lipofectamine 2000. HEK293T and SHYSY5Y-tau cells were treated with p62-ZZ ligands for 24 h. After incubation on ice for 30 min for supernatant collection, the cells were lysed by a cycle of freezing/thawing and centrifuged at 13,000 g for 10 min. Protein concentration was determined using the Pierce BCA Protein Assay Kit (Thermo Fisher Scientific). Non-reducing 4X LDS sample buffer was added to sample lysate, followed by boiling at 100 °C for 10 min and samples were loaded on a 3% stacking and 8% separating SDS-PAGE. Immunoblotting assays were carried out using anti-GFP antibody (Sigma) to visualize the oligomeric complexes of Tau.

[4] = system: ACHN cells; test: Wound healing assay in ACHN cells; format: cell-based; conditions: wound healing, compared with p62-binding moiety or TBL
Method: To analyze cell migration in two dimensions, U-87 MG or ACHN cells were plated to a monolayer. Cells were scratched with a sterile 10 μl pipette tip and the debris was removed using medium. Cells were treated with compounds and incubated for different time to monitor cell behavior. Photographs were obtained using a microscope at different time point.

[5] = system: AR^+LC3^+ autophagic membranes; test: ICC of AR-LC3 co-localization in LNCaP cells; format: cell-based; conditions: 2.5 µM, 24 h
Method: Cells were cultured on coverslips coated with poly-L-lysine (Sigma) to observe cellular localization of proteins. Using 4% paraformaldehyde in PBS (pH 7.4), the cells were fixed for 15 min at room temperature and washed three times for 5 min with PBS. After fixing, the cells were permeabilized with 0.5% Triton X-100 in PBS solution for 15 min and washed three times with PBS for 5 min. The cells were blocked containing 2% BSA in PBS solution for 1 h at room temperature. Subsequently, the cells were incubated with primary antibody diluted in 2% BSA/PBS solution overnight at 4 °C, followed by washing the cells three times for 10 min with PBS and incubated with Alexa Fluor-conjugated secondary antibody diluted in 2% BSA/PBS for 30 min at room temperature. Using a DAPI-containing mounting medium (Vector Laboratories), the coverslips were mounted on glass slides. Confocal images were taken by laser scanning confocal microscope 510 Meta (Zeiss) and analyzed by Zeiss LSM Image Browser (ver. 4.2.0.121). […] Quantification results are shown as mean ± S.D. or S.E.M. of three independent experiments

T1 sequence (P10636 1-441 isoform P10636-8 P301L): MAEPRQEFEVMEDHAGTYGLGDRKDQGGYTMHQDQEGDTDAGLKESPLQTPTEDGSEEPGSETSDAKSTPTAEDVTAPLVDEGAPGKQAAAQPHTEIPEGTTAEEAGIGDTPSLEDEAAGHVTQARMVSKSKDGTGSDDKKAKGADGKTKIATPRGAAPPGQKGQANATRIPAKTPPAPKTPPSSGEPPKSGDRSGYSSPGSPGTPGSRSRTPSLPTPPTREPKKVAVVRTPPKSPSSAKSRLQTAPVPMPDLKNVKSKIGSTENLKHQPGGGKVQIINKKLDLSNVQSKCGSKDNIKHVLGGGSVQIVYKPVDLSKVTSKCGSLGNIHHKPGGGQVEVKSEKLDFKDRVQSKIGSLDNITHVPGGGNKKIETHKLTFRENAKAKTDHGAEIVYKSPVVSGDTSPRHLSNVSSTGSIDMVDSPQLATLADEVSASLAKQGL
Sequence of high-molecular weight tau aggregates (P10636 1-441 isoform P10636-8 P301L): as above

## O=C(CCCc1ccccc1)NCCOCCOCCOCCNCc1ccc(OCc2ccccc2)c(OCc2ccccc2)c1 [PBA-1105]
[1]; 20 mg/kg, control 100
  Sudan black B AVG % CA1: 74.803%
  Sudan black B AVG % Cortex: 62.7215%
[1]; 20 mg/kg
  Sudan black B (BiFC fluorescence) CA1, per animal: 19.17 and 25.62 and 30.19 and 23.53 and 13.28 and 12.8 and 43.41
  Sudan black B (BiFC fluorescence) Cortex, per animal: 48.97 and 40.445 and 49.503 and 29.786 and 68.378 and 118.96 and 77.483
[1]; 50 mg/kg, control 100
  Sudan black B AVG % Cortex: 38.7498%
[1]; 50 mg/kg
  Sudan black B (BiFC fluorescence) CA1, per animal: 28.22 and 22.5 and 36.39 and 26.84 and 28.79 and 49.66 and 49.74
  Sudan black B (BiFC fluorescence) Cortex, per animal: 22.584 and 15.381 and 25.562 and 21.978 and 66.624 and 61.234 and 54.472
[2]; 20 mg/kg
  AVG (%) Insoluble mTau: 110.945%
  AVG (%) Soluble mTau: 97.7163%
[2]; 50 mg/kg
  AVG (%) Insoluble mTau: 56.7728%
  AVG (%) Soluble mTau: 133.669%
[2]; mouse, in vivo
  endogenous wild-type murine tau in detergent-soluble or -insoluble fractions: did not degrade
[3]
  high-molecular weight tau aggregates: effectively eliminated high-molecular weight tau aggregates

## O[C@H](CNCCOCCOCCOc1ccc(-c2c(-c3ccccc3)nn3c(C(F)(F)F)cc(C(F)(F)F)nc23)cc1)COc1ccc(OCc2ccccc2)c(OCCCc2ccccc2)c1 [PHTPP-1304]
[4]
  inhibition of cell migration: more efficiently inhibited cell migration

## C=CC(C)(O)C(=O)N(C(=O)NCCOCCOCCNCC(O)COc1ccc(OCCc2ccccc2)c(OCCc2ccccc2)c1)c1cc(Cl)cc(Cl)c1 (centres unmarked) [VinclozolinM2-2204]
[5]
  AR-LC3 colocalization, AVG of cells of 50: 40
  AR-LC3 colocalization, percentage AVG: 80%
[5]; single experiments, listed as Vinclo.-2204
  AR-LC3 colocalization, cells of 50 cells counted: 41 and 36 and 43
